Assay results published in patent publication US20250017888A1, “COMPOUNDS FOR TREATING DISEASES ASSOCIATED WITH HYALURONAN OVERPRODUCTION” (THE ROYAL VETERINARY COLLEGE, priority 2021, published 2025).
pIC50: −log10 of the molar value.

Assays:
Str/ort mice [1] = assay: Micro-CT of tibial trabecular and cortical bone in Str/ort mice; type: in vivo, mouse
Protocol: At 10-13 weeks of age, 21 male Str/ort mice (n=7/group) were assigned randomly to vehicle, hylin-betaine and xantho-betaine groups and were treated intraperitoneally 18 weeks with either vehicle (5% DMSO in 95% peanut oil), 50 mg/kg compound of Example 1 (“hylin-betaine”) in 5% DMSO and 95% peanut oil or 50 mg/kg compound of Example 2 (“xantho-betaine”) in 5% DMSO and 95% peanut oil. Micro-CT scanning and analysis were performed as described previously. Briefly, tibiae from vehicle, hylin-betaine and xantho-betaine treated groups were scanned using the Skyscan 1172 (Skyscan, Kontich, Belgium), with x-ray tube operated at 50 kV and 200 Micro-A, 1600 ms exposure time with a 0.5 mm aluminium filter and a voxel size of micro-m 5. The scanning time for each sample was approximately 2 hours. The slices were then reconstructed using NRecon 1.6.9.4 (Skyscan, Kontich, Belgium). 2D/3D analyses were performed using CTAn 1.15.4.0+ version software (Skyscan, Kontich, Belgium). Additionally, 3D visualization and production of colour-coded images of trabecular, cortical and skull bones were conducted using Avizo 9.0.0 software (FEI, Oregon USA). • a. Trabecular analysis: prior to analysis, Micro-CT images were re-oriented in DataViewer 1.5.0 (Skyscan, Kontich, Belgium), such that the cross-section within the transverse plane was perpendicular to the long axis of the bone. Tibial length was measured in CTAn 1.15.4.0+ software using a straight line measuring tool and the appearance of the trabecular ‘bridge’ connecting the two primary spongiosa bone ‘islands’ was set as reference point for analysis of the metaphyseal trabecular bone adjacent to the epiphyseal growth plate. 5% of the total bone length from this point (towards the diaphysis) was utilised for trabecular analysis of the proximal tibia. The trabecular region of interest was drawn freehand using the selection tool of CTAn, a few voxels away from the endocortical surfaces in order to avoid inclusion of remnants of primary spongiosa associated with cortical bone. The selected trabecular regions of interests were analysed using CTAn BatMan software (Skyscan, Kontich, Belgium) and morphometric parameters were recorded. • b. Whole bone cortical analysis: Whole bone analysis was performed on datasets derived from CT scans using BoneJ (version 1.4.0), an ImageJ plugin. Following segmentation, alignment and removal of fibula from the dataset, a minimum bone threshold was selected using a histogram based method in ImageJ which utilises all pixels in a stack to construct a histogram and was further confirmed using ImageJ “threshold function”. The threshold ranged between 22000-22100 and was applied to all datasets to separate higher density bone from soft tissues and air. This threshold was used in “Slice Geometry” function within BoneJ to calculate bone cross sectional area (CSA), second moment of area around the minor axis (Imin), second moment of area around the major axis (Imax), mean thickness determined by local thickness in two dimensions (Ct.Th), ellipticity and resistance to torsion (J). The most proximal (15%) and the most distal portions (25%) of tibial length were excluded from analysis, as these regions include trabecular bone.

bovine cartilage slices = assay: Proteoglycan shedding from bovine cartilage slices; type: cell-based; settings: Interleukin induced, one week of incubation; compared to unmodified xanthohumol
Protocol: Hyaluronan overproduction causes massive shedding of proteoglycans from cartilage. Bovine cartilage slices were cultivated in organ culture and osteoarthritic reactions were induced by addition on Interleukin and increasing concentrations of xanthohumol-betaine. The amounts of proteoglycan were determined in the cartilage slices and in the medium after one week of incubation.

[2] = system: bovine cartilage explants; assay: Proteoglycan loss from interleukin activated bovine cartilage explants; type: cell-based
Protocol: Cartilage explants were weighed (average wet weight: 20 mg) incubated in the absence and presence of IL-1 (2 ng/ml) and the inhibitors at various concentrations for 5 days. The tissues were extracted with 1.5 ml of a solution of 4 M guanidinium hydrochloride, 0.1 M ε-aminohexanoid acid, 5 mM benzamidine, 10 mM N-ethylmaleinimide, 0.5 mM phenylmethylsulfonyl fluoride for 3 days at 4° C. The solution was centrifuged for 5 min at 10.000 g and the proteoglycans were determined in the supernatant by the alcian blue method as described (Bjornsson, S., Anal. Biochem., 1993, 210, 282-291).
Bovine cartilage explants were incubated in the absence and presence of interleukin for stimulation of osteoarthritic reactions and the indicated concentrations of the xanthohumol-betaine (FIG. 6A), xanthohumol-prothiazole (FIG. 6B), quercetin-prothiazole (FIG. 6C), quercetin (FIG. 6D) and xanthohumol (FIG. 6E) for 5 days. The cartilage explants were weighed and the proteoglycan concentrations were determined in the cartilage explants (solid bars) and culture supernatants (open bars).

Str/ort mice [3] = assay: Health evaluation of treated Str/ort mice; type: in vivo, mouse; settings: 50 mg/kg intraperitoneally, 18 weeks, vs vehicle
Protocol: At 10-13 weeks of age, 21 male Str/ort mice (n=7/group) were assigned randomly to vehicle, hylin-betaine and xantho-betaine groups and were treated intraperitoneally 18 weeks with either vehicle (5% DMSO in 95% peanut oil), 50 mg/kg compound of Example 1 (“hylin-betaine”) in 5% DMSO and 95% peanut oil or 50 mg/kg compound of Example 2 (“xantho-betaine”) in 5% DMSO and 95% peanut oil.
To assess the health status after hylin-betaine and xantho-betaine treatment, mice were monitored for their health status. The monitoring criteria were body surface temperature, body weight, gait, coat condition, skin tenting for dehydration, hunching, activity, breathing rate and general body condition. Mice were scored blind for each one of these criteria from 1-5 except for body weight and temperature.

chondrosarcoma cells = assay: Uptake of flavonoids into chondrosarcoma cells by intracellular fluorescence; type: cell-based; settings: concentration dependence, FIG. 2A
Protocol: Confluent monolayers of chondrosarcoma cells on 96 well microtiter plates were incubated with 100 μM solutions of flavonoids in serum-free Quantum medium. Changes in fluorescence were monitored from the bottom of the wells at excitation and emission wavelengths of 340 nm and 450 nm for xanthohumol and at 440 nm and 530 nm for quercetin, respectively.
Flavonoids are weakly fluorescent in aqueous buffer, but greatly enhance the fluorescence in the presence of proteins (Sengupta, B. and Sengupta, P. K., Biochem. Biophys. Res. Commun., 2002, 299, 400-403). This property was used to follow the uptake of quercetin and xanthohumol into chondrosarcoma cells.

Structure (SMILES): COc1cc(O)c(CC=C(C)C)c(O)c1C(=O)/C=C/c1ccc(OC(=O)C[N+](C)(C)C)cc1.[Cl-] [Xantho-betaine, (E)-2-(4-(3-(2,4-dihydroxy-6-methoxy-3-(3-methylbut-2-en-1-yl)phenyl)-3-oxoprop-1-en-1-yl)phenoxy)-N,N,N-trimethyl-2-oxoethanaminium chloride]
- metaphyseal trabecular bone architecture and mass (tibial length, BV/TV, TV, BV, eccentricity, thickness, separation, number) (Str/ort mice [1]; 50 mg/kg intraperitoneally, 18 weeks, vs vehicle): do not alter
- cortical cross-sectional area (CSA) (Str/ort mice [1]; apart from one distal region and a region close to tibio-fibula junction): do not significantly
- predicted tibial resistance to torsion (J) (Str/ort mice [1]; multiple regions across tibial length, vs vehicle): higher
- mean cortical cross-sectional thickness (Str/ort mice [1]; multiple regions from −15-60% tibial length, vs vehicle): higher in some regions and lower in other regions
- second moment of area around minor axis (Imin) (Str/ort mice [1]; vs vehicle, one region proximally): significantly lowers
- tibial ellipticity (Str/ort mice [1]; vs vehicle, region ˜40-50% along the tibia): greater ellipticity
- second moment of area around major axis (Imax) (Str/ort mice [1]; vs vehicle, ˜35-55% of tibial length): significantly increased
- reduction of shedding of proteoglycan into the medium (bovine cartilage slices): more effective
- pIC50 ([2]; Bos taurus, read-out: IC50 Inhibition of proteoglycan loss): 6.52
- inhibition of proteoglycan loss (protective effect) ([2]; interleukin stimulated, 5 days): similarly effective
- health status: weight, hunching, gait, activity, vocalisation and respiration scores, coat condition (Str/ort mice [3]): does not alter
- uptake into chondrosarcoma cells (intracellular fluorescence) (chondrosarcoma cells): taken up in a concentration dependent manner
